Test results: paper PMC10359466, “Identification of a small-molecule inhibitor that selectively blocks DNA-binding by Trypanosoma brucei replication protein A1” (Nature Communications, 2023)
Several values for one entry are separate records, joined by “and”; a condition that tells them apart may be missing. Equal entries are not always repeated. Entries after “also recorded” stand apart in the source; their conditions may differ. Where two headings read alike, the source gives them in different places.

Legend:
HEK293 = assay: AlamarBlue cell viability of HEK293 cells; type: cell-based, human; settings: for EC50: HEK293, 72 h
Experimental: (§1) To determine the inhibitory effect of JC-229 on human cells, HeLa and HEK293 cells were suspended in 180 μl D-MEM with 10% FBS and plated at a density of 2 × 10^4 cells/ml in triplicate. […] Percent viability was plotted using GraphPad Prism software. […] We estimated the EC50 values using the concentration of JC-229 that causes a 50% reduction of cell viability (inhibitor vs. normalized response, variable slope).

T. brucei cells [1] = assay: Cell-cycle analysis by PI staining and flow cytometry; type: cell-based, Trypanosoma brucei; settings: 10 µM
Experimental: About 10 million cells were collected, fixed with ice-cold 70% ethanol, and incubated with 50 μg/ml PI (Sigma-Aldrich) and 200 μg/ml RNase A (Sigma-Aldrich) in 1x PBS (Corning) at 37 °C for 30 min in the dark. Samples were analyzed by flow cytometry ([…], BD Biosciences) and FlowJo.

HsRPA complex = target: T1, HsRPA complex (Homo sapiens, UniProt P27694); assay: MST inhibition of ssDNA-binding activity, HsRPA complex; settings: dT32, MST
T1 construct: made in house; host or cells: E. coli BL21
T1 sequence (P27694 whole entry): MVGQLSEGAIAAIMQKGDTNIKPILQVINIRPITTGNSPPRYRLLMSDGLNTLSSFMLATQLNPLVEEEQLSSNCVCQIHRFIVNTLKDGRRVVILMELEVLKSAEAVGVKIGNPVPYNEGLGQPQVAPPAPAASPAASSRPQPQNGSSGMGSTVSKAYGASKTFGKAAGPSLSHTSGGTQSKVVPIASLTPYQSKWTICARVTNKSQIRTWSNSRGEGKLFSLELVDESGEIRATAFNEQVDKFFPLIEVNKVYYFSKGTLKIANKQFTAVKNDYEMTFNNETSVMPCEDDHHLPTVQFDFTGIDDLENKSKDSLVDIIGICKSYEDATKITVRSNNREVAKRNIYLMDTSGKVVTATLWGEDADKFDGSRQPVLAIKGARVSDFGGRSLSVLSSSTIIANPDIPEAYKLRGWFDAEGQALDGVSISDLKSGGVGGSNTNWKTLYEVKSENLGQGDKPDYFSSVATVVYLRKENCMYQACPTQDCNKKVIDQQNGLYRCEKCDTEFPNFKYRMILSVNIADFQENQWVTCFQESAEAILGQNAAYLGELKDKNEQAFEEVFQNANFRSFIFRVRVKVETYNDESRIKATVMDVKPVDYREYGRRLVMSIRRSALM
T1 sequence (P15927 whole entry partner): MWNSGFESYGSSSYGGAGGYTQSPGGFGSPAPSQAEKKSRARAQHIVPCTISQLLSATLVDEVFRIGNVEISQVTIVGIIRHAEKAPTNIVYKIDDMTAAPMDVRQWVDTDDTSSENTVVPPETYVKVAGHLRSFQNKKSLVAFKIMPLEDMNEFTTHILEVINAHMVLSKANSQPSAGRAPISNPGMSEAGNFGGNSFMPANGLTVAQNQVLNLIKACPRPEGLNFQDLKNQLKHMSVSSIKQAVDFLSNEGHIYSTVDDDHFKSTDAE
T1 sequence (P35244 whole entry partner): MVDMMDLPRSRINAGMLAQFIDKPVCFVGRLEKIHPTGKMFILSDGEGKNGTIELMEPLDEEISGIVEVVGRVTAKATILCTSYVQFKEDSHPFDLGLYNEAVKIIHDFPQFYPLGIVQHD
Text: (§2) Samples were then loaded into MST capillaries.
(§3) We used one site binding to obtain a dissociation constant (Kd) and standard 4-parameter logistic curve (Sigmoidal curve) analysis to obtain the IC50 value of JC-229. We used GraphPad Prism software.

TbRPA complex = TbRPA complex (Trypanosoma brucei brucei, UniProt Q384B5); assay: MST inhibition of ssDNA-binding activity, TbRPA complex; set-up: species or system T. brucei
TbRPA complex, sequence (Q38DK0 entry or part of it): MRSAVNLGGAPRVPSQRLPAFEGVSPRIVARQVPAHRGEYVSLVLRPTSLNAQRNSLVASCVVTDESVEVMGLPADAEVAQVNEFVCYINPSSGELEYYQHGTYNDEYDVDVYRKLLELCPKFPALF
TbRPA complex, sequence (Q57ZN9 entry or part of it, further chain): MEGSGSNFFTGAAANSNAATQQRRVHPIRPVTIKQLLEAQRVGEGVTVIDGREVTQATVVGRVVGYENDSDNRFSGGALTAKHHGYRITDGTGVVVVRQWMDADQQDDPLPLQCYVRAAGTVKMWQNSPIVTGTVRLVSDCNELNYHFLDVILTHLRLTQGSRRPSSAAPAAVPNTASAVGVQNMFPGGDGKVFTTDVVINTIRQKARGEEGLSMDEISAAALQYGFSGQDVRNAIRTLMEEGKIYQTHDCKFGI
TbRPA complex, sequence (Q384B5 entry or part of it): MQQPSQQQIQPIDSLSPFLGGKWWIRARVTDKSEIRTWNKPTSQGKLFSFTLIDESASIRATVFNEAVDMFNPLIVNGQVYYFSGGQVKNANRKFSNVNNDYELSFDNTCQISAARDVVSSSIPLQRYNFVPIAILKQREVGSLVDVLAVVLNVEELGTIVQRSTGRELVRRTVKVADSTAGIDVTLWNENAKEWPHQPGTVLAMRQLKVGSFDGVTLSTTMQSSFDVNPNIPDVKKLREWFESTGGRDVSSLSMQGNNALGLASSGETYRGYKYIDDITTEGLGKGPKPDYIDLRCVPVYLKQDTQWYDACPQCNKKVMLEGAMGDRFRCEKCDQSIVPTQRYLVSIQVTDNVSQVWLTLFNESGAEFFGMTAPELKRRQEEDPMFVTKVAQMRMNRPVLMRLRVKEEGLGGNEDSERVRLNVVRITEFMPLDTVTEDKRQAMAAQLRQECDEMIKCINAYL
Text: as §2, §3

T. brucei cells [2] = assay: DNA synthesis assay by BrdU pulse labeling; type: cell-based, Trypanosoma brucei; settings: 10 µM, after 8 h of treatment
Experimental: The 5-Bromo-2′-deoxyuridine (BrdU) incorporation assay was performed as described previously in ref. [49]. BrdU (Sigma-Aldrich, catalog number B5002) was added to cell cultures to a final concentration of 500 μM and incubated for 40 min at 37 °C. About 20 million cells were harvested and fixed in ice-cold 70% ethanol. DNA in fixed cells was denatured in 0.1 N HCl (Fisher Scientific) with 0.5% Tween 20 (Sigma-Aldrich) and 1% BSA (Jackson Immunoresearch) for 20 min at room temperature. To stain newly incorporated DNA, fixed cells were incubated with 1 µg/ml mouse anti-BrdU antibody (BD Pharmingen, catalog number 555627, lot 6084615, dilution 1:500) at room temperature for 2.5 h and then with 4 µg/ml donkey anti-mouse Alexa 488 (Invitrogen, catalog number A-21202, lot 94C2-1, dilution 1:500) at room temperature for 1 h in the dark. Bulk DNA was stained with 5 µg/ml PI by incubating at room temperature for 30 min in the dark. Samples were analyzed by flow cytometry (FACSVia, BD Biosciences) and FlowJo.

T. brucei cells [3] = assay: AlamarBlue cell viability / growth inhibition of T. brucei
Experimental: Synergy H1 microplate reader (BioTek) was used with 560/590 nm (excitation/emission) filter settings and relative fluorescence unit (RFU) values were obtained. The percentage of viable cells were calculated from the RFU values.
Trypanosome cells were seeded at 1 × 10^3 cells/ml density in 180 µl in a 96-well culture plate in triplicate. […] DMSO was used as a vehicle control at 0.0075%.

HeLa = assay: AlamarBlue cell viability of HeLa cells; type: cell-based, human
Experimental: as §1

TbRPA1 DBD-AB = TbRPA1 DBD-AB (Trypanosoma brucei brucei, UniProt Q384B5); assay: EMSA inhibition of ssDNA binding, TbRPA1 DBD-AB; settings: 0.625-80 µM, 5´IRDye800-dT32
TbRPA1 DBD-AB, sequence (Q384B5 entry or part of it): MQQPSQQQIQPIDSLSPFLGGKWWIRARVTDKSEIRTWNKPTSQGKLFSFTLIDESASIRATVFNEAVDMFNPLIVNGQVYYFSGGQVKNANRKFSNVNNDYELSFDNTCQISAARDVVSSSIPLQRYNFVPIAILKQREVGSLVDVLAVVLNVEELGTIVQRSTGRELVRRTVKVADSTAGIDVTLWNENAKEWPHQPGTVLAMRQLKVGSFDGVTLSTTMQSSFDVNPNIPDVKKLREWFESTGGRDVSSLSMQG

T. brucei cells [4] = assay: Microscopic analysis of treated cells (DAPI); type: cell-based, Trypanosoma brucei; settings: 10 µM
Experimental: For microscopic analysis, untreated or JC-229 treated cells were seeded, and fixed with 1% paraformaldehyde for 10 min at room temperature. Cells were then washed with 1x PBS and stained with DAPI (0.5 µg/ml) (Sigma). Images were captured using fluorescence microscopy (EVOS M5000, Thermo Fisher Scientific) at 40x magnification and edited with Adobe Photoshop.

[5] = target: T2, HsDBD-F and ATRIP interaction (Homo sapiens, UniProt P27694); assay: MST inhibition of the HsDBD-F binding with ATRIP peptide; settings: 50 nM Cy5-labeled ATRIP peptide
T2 construct: We purified 6xHis-HsDBD-F (amino acids 1–181), synthesized ATRIP peptide; made in house; host or cells: E. coli BL21 (protein); solid-phase synthesis (peptide)
T2 sequence (P27694 1-181): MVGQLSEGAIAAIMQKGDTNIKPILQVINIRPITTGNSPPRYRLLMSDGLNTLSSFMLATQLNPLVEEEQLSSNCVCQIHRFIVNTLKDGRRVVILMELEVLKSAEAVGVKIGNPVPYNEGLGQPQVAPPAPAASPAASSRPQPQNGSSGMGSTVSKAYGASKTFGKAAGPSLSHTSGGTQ
Text: as §2, §3

Cc1ccc(C(=O)Nc2ccc(Cl)c(Cl)c2)cc1S(=O)(=O)Nc1ccc(Cl)c(Cl)c1 [JC-229, N-(3,4-dichlorophenyl)−3-(N-(3,4-dichlorophenyl)sulfamoyl)−4-methylbenzamide]
Inhibition of HEK293 at EC50 to T. brucei (HEK293; 6.5 µM): barely inhibited | EC50 (HEK293; Homo sapiens, 0.5-50 μM, 72 h, AlamarBlue, inhibitor vs. normalized response, variable slope (Fig. 3f)): 18 µM | EC50 (HEK293; Homo sapiens, 72 h, Sigmoidal, 4-PL (Suppl. Table 1-B)): 10.3 µM | inhibition at 50 µM (HEK293; Homo sapiens, HEK293, 50 µM, 72 h, read-out: Inhibition of HEK293 at maximum concentration): < 100% | Sub-G1 population (T. brucei cells [1]; 32 h): ~45% | Cells that lost the bulk of their DNA (T. brucei cells [1]; 48 h): ~97% | IC50, inhibition of HsRPA complex ssDNA binding (HsRPA complex): No inhibition; also recorded: no inhibitory effect | IC50 (TbRPA complex; dT20, 25 nM complex, MST (Supplementary Fig. 11d)): 33.9 nM and ~33.9 nM | IC50 (TbRPA complex; dT32, 25 nM complex, MST (Fig. 5d)): 24.5 nM | IC50 (TbRPA complex; dT32, 25 nM complex, MST (Supplementary Fig. 11d, 18g)): 33.9 nM and ~33.9 nM | New DNA synthesis (BrdU incorporation) (T. brucei cells [2]): completely blocked new DNA synthesis; also recorded: completely blocking DNA synthesis | Effect on parasite proliferation (T. brucei cells [3]; 50 µM, 3 days, AlamarBlue): abolished parasite proliferation | EC50 (T. brucei cells [3]; Trypanosoma brucei, 72 h, read-out: EC50 (T. brucei growth inhibition), WT T. brucei, 72 h, AlamarBlue, standard 4-PL curve): 6.6 µM | EC50 (T. brucei cells [3]; Trypanosoma brucei, 72 h, read-out: EC50 (T. brucei), 0.5-50 μM, 72 h, AlamarBlue, inhibitor vs. normalized response, variable slope (Fig. 3f)): 6.54 µM | EC50 (T. brucei cells [3]; Trypanosoma brucei, read-out: EC50, WT (WT/WT), Fig. 8d WT strain, 72 h, [Inhibitor] vs. norm response, variable slope): 5.68 µM | EC50 (T. brucei cells [3]; Trypanosoma brucei, read-out: EC50, WT (WT/WT), Suppl. Table 5-B, Sigmoidal, 4-PL): 5.65 µM | EC50 (T. brucei cells [3]; read-out: EC50 (T. brucei growth inhibition), WT T. brucei, 72 h, AlamarBlue, standard 4-PL curve): 6.58 µM and 6 µM | EC50 (T. brucei cells [3]; read-out: EC50 (T. brucei), 0.5-50 μM, 72 h, AlamarBlue, inhibitor vs. normalized response, variable slope (Fig. 3f)): 6.5 µM | EC50 (T. brucei cells [3]; read-out: EC50, WT (WT/WT), Fig. 8d WT strain, 72 h, [Inhibitor] vs. norm response, variable slope): 5.7 µM | Inhibition of HeLa at EC50 to T. brucei (HeLa; 6.5 µM): barely inhibited | EC50 (HeLa; Homo sapiens, HeLa, 72 h, 0.5-50 μM, 72 h, AlamarBlue, inhibitor vs. normalized response, variable slope (Fig. 3f)): 32 µM | EC50 (HeLa; Homo sapiens, HeLa, 72 h, Sigmoidal, 4-PL (Suppl. Table 1-B)): 13.2 µM | inhibition at 50 µM (HeLa; Homo sapiens, HeLa, 50 µM, 72 h, read-out: Inhibition of HeLa at maximum concentration): < 100% | Inhibition of ssDNA binding of TbDBD-AB (EMSA) (TbRPA1 DBD-AB): inhibited by JC-229 in a dose-dependent manner | Microscopic analysis of treated cells (T. brucei cells [4]): leads to cell death | IC50 [5]: ~60 µM and 60.8 µM
